The record followed here is ChEMBL document CHEMBL2331275, “Fluorescence study for selecting specific ligands toward HER2 receptor: an example of receptor fragment approach” (Eur J Med Chem, 2013).

The target of the test is Receptor tyrosine-protein kinase erbB-2 (Homo sapiens, UniProt P04626). The test is described as follows: Binding affinity to synthetic peptide mimicking HER2 subdomain 4 (unknown origin) by fluorescence spectroscopic analysis.

The Kd is the free concentration of one partner at which half of the binding sites on the other are occupied at equilibrium, for simple one-to-one binding. A high value points to lower affinity.

Calls of active or inactive are those of the source. The rule behind the calls is not given here.

Chain of Receptor tyrosine-protein kinase erbB-2 (P04626 whole entry): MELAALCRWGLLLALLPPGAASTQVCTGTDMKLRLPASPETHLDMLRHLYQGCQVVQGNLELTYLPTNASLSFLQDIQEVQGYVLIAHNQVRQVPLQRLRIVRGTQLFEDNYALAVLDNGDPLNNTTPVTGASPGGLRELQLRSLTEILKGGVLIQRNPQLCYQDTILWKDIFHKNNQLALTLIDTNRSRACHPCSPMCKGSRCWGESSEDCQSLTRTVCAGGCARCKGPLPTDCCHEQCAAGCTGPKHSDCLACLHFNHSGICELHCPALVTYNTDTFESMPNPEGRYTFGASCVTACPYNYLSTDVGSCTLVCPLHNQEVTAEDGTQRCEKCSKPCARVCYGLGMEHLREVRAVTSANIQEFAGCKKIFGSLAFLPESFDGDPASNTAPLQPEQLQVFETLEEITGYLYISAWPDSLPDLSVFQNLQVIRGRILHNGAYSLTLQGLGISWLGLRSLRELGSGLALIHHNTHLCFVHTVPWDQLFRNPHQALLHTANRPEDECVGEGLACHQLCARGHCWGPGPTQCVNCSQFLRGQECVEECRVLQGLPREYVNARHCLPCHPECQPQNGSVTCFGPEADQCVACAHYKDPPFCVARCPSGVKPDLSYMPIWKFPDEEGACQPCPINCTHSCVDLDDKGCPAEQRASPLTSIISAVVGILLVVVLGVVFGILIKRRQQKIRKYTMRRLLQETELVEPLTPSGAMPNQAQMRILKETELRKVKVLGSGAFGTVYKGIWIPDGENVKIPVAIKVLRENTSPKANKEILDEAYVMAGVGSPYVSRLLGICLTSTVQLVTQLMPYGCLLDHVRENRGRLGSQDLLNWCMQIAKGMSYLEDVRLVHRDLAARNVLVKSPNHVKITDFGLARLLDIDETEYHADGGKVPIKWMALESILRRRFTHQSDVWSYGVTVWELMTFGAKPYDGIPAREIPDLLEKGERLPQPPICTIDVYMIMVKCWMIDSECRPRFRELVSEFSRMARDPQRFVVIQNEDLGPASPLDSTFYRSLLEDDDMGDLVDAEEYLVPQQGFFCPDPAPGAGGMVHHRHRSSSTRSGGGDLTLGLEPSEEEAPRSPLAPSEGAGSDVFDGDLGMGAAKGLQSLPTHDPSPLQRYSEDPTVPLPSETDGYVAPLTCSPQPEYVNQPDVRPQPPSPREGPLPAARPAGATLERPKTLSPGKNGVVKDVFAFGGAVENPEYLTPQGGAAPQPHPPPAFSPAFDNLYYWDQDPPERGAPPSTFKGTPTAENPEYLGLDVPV

Regarding Ac-ARIYPTNGYTRY-NH2, the Kd is 446 nM.
Ac-CSRWGGDGFYAMDYWG-NH2: the result was inactive.
Regarding Ac-CQQHYTTPPTFG-NH2, binding was put at a Kd of 174 nM.
Same read-out and setting: next, Ac-QDVNTAVAW-NH2: 10.2 nM.
